Experimental data as given in patent US12173088B2, “Anti-microbial peptides” (priority 2018, dated 2024).
Peptide text beside a SMILES is read from it.

Experiments:
E. coli ATCC 25922 = assay type: cell-based, Escherichia coli; details: ATCC 25922
How it was run: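 Peptides, serially diluted two-fold, were incubated overnight at 37 °C with E. coli ATCC 25922 from log-phase cultures adjusted to OD600 0.001. Turbidity at 630 nm served as the read-out in this broth microdilution format.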

K. pneumoniae ATCC 13883 = assay type: cell-based, Klebsiella pneumoniae; details: ATCC 13883
How it was run: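 Broth microdilution in tryptic soy broth: log-phase cultures (OD600 ≈0.5) diluted to OD600 0.001, given two-fold peptide dilutions, incubated overnight at 37° C. Growth read at 630 nm.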

[1] = test system: Klebsiella pneumoniae clinical strains; test: microbe, parasite or virus in culture; details: clinical strains
[2] = test system: clinical strains of methicillin-resistant and susceptible S. aureus; test: microbe, parasite or virus in culture; details: Staphylococcus aureus

CC(C)C[C@H](NC(=O)[C@H](CC(C)C)NC(=O)[C@H](CCCCN)NC(=O)[C@H](CC(C)C)NC(=O)CNC(=O)[C@H](CC(C)C)NC(=O)[C@H](CO)NC(=O)[C@H](CC(C)C)NC(=O)[C@H](CC(C)C)NC(=O)[C@H](CC(C)C)NC(=O)[C@H](CCCCN)NC(=O)[C@H](CC(C)C)NC(=O)CN)C(N)=O [DFT561, GLKLLLSLGLKLL] (H-GLKLLLSLGLKLL-NH2; N-terminus and C-terminus assumed)
>25 µM: MIC EC (E. coli ATCC 25922) (E. coli ATCC 25922)

CC(C)C[C@H](NC(=O)[C@H](Cc1c[nH]c2ccccc12)NC(=O)[C@H](Cc1c[nH]c2ccccc12)NC(=O)[C@@H](N)Cc1c[nH]c2ccccc12)C(=O)N[C@@H](CCCNC(=N)N)C(=O)N[C@@H](CCCNC(=N)N)C(=O)N[C@@H](CCCNC(=N)N)C(=O)N[C@@H](Cc1c[nH]c2ccccc12)C(N)=O [Horine, WWWLRRRW] (H-WWWLRRRW-NH2; N-terminus and C-terminus assumed)
>25 µM: MIC K. pneumonia ATCC 13883 (K. pneumoniae ATCC 13883)
>64 µM: MIC [1]

CN[C@H](CC(C)C)C(=O)N[C@H]1C(=O)N[C@@H](CC(N)=O)C(=O)N[C@H]2C(=O)N[C@H]3C(=O)N[C@H](C(=O)N[C@H](C(=O)O)c4cc(O)cc(O)c4-c4cc3ccc4O)[C@H](O)c3ccc(c(Cl)c3)Oc3cc2cc(c3O[C@@H]2O[C@H](CO)[C@@H](O)[C@H](O)[C@H]2O[C@H]2C[C@](C)(N)[C@H](O)[C@H](C)O2)Oc2ccc(cc2Cl)[C@H]1O [Vancomycin]
1 µM: MIC ([2]; MSSA, strain B255-16 MSSA) | MIC ([2]; MSSA, strain B269-16 MSSA) | MIC ([2]; NEWMAN, strain Newman) | MIC ([2]; USA400, strain USA400) | MIC ([2]; strain M106-16) | MIC ([2]; strain M108-16) | MIC ([2]; strain M113-16) | MIC ([2]; strain M114-16) | MIC ([2]; strain M118-16) | MIC ([2]; strain M121-16) | MIC ([2]; strain M122-16) | MIC ([2]; strain M128-16)
0.5 µM: MIC ([2]; MSSA, strain B243-16 MSSA) | MIC ([2]; MSSA, strain B254-16 MSSA) | MIC ([2]; MSSA, strain B262-16 MSSA) | MIC ([2]; USA200, strain USA200) | MIC ([2]; USA300, strain USA300) | MIC ([2]; strain M109-16) | MIC ([2]; strain M111-16) | MIC ([2]; strain M112-16) | MIC ([2]; strain M116-16) | MIC ([2]; strain M117-16) | MIC ([2]; strain M119-16) | MIC ([2]; strain M120-16) | MIC ([2]; strain M123-16) | MIC ([2]; strain M126-16) | MIC ([2]; strain M127-16) | MIC ([2]; strain M129-16) | MIC ([2]; strain M130-16)
2 µM: MIC ([2]; strain UAMS-1) | MIC ([2]; strain mu50)
